For one molecule, Kd results are on record in publication PMC4646407, “Tripartite ATP-independent Periplasmic (TRAP) Transporters Use an Arginine-mediated Selectivity Filter for High Affinity Substrate Binding” (The Journal of Biological Chemistry, 2015).

The target of test [1] is SiaP (SiaP-His6) (Haemophilus influenzae, UniProt P44542, F193W). The conditions noted are these: 50 mM Tris/HCl, pH 8.0.
Test [2] concerns the target T1, SiaP (SiaP-His6) (Haemophilus influenzae, UniProt P44542).
T1 construct: C-terminal His6 tag; expressed in E. coli BL21(DE3) pLysS (pET21b, pAH16) with native signal peptide, purified from periplasm
The test can be described thus: intrinsic tyrosine fluorescence titration. The class given is binding. The conditions noted are these: 50 mM Tris/HCl, pH 8.0; 0.05 μM protein.

In test [3] the target is SiaP (SiaP-His6) (Haemophilus influenzae, UniProt P44542, R170K/F193W). The conditions noted are these: 50 mM Tris/HCl, pH 8.0; 0.5 μM protein.
Sequence of SiaP (SiaP-His6) (Haemophilus influenzae, UniProt P44542, R170K/F193W) (P44542 24-329 R170K/F193W): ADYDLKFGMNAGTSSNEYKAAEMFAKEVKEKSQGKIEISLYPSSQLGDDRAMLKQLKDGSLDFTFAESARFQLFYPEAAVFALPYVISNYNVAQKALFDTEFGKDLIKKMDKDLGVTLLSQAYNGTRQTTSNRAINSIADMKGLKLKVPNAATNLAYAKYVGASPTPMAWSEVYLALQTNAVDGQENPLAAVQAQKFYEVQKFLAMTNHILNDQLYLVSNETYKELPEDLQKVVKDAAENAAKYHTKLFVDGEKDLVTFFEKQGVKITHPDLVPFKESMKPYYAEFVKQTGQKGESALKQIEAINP

T1 sequence (P44542 24-329): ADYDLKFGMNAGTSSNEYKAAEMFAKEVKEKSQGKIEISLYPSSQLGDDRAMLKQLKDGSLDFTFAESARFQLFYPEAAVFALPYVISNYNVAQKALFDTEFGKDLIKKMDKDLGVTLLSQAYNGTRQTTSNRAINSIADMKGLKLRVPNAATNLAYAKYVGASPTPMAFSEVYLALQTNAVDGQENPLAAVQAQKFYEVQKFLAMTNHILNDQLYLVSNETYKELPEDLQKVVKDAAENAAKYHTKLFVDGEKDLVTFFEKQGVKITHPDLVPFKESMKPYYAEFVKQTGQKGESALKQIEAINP
Sequence of SiaP (SiaP-His6) (Haemophilus influenzae, UniProt P44542, F193W) (P44542 24-329 F193W): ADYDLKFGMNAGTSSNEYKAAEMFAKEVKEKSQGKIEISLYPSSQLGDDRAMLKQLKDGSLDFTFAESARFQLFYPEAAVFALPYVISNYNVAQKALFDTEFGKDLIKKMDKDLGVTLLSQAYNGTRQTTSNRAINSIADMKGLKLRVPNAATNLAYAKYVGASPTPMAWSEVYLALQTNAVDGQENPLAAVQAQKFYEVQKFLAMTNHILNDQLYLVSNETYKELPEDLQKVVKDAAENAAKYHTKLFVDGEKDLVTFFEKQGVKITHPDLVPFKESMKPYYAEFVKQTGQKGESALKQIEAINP

The term Kd denotes the constant that tells how readily two partners part at equilibrium. Read a low Kd as a tighter complex. With `CC(=O)N[C@H]1[C@H]([C@H](O)[C@H](O)CO)OC(O)(C(=O)O)C[C@@H]1O` (stereo partly drawn) [Neu5Ac], the Kd was found to be 1.21 ± 0.03 µM in test [1], 0.14 ± 0.04 µM in test [2] and 38700 ± 8300 µM in test [3].
